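Each compound was tested at five concentrations against cells in 96-well plates for 48 hours. GI50 marks 50% less growth. TGI is the concentration that stops growth completely.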

Results on 16 compounds are retold here after PubChem BioAssay (NCI).

Holding throughout (assay): NCI anticancer screen, dose series, 48 h
The subject of assay [1] is DU-145 prostate.
For assay [2], the system named is KM12 colon.
The test system of assay [3] is OVCAR-5 ovarian.
For assay [4], the system named is NCI-H226 lung.
In assay [5] the test system is IGROV1 ovarian.
The test system of assay [6] is SK-MEL-5 melanoma.
Assay [7] deals with TK-10 renal.
Assay [8] has as its system 786-0 renal.
Assay [9] deals with MDA-MB-435.
Assay [10] deals with RPMI-8226 leukemia.

`CCNC(=O)c1cc2c(-c3cc(C(C)(C)O)ccc3Oc3c(C)cc(F)cc3C)cn(C)c(=O)c2[nH]1`: the GI50 in [1] was 4.52 µM; in assay [2], 1.87 µM; in [3] it was 1.63 µM; in [4], 2.64 µM; in assay [5], 1.39 µM; in assay [6], 2.09 µM. In addition, the GI50 is 0.298 µM in assay [7], 1.15 µM in [8], 1.41 µM in assay [9] and 0.605 µM in assay [10]. The TGI in assay [1] worked out at 18.4 µM; in [2], 15.8 µM; in assay [3] it was 16.2 µM; in assay [4] it was 14.9 µM; in assay [5], 11.2 µM; in assay [6], 6.89 µM. Besides, the TGI in assay [7] was 10.6 µM; in [8], 19.2 µM; in assay [9], 14.3 µM; in [10] it was 8.98 µM.
Regarding `c1cc(CNCCN2CCNCC2)ccn1`, the TGI in [1], in [2], in [3], in [4], in [5] and in assay [6] was above 100 µM in each case. Moreover, the TGI in [7] is 86.7 µM; in assay [8], above 100 µM; in assay [9], above 100 µM; in [10], above 100 µM.
With `O=C(NCc1ccc(Cn2c(=O)sn(-c3ccccc3)c2=O)cc1)OCc1ccc2c(Br)cc(Br)c(O)c2n1`, the GI50 in assay [1] was 0.992 µM; in assay [2], 1.57 µM; in assay [3] it was 1.43 µM; in assay [4] it was 1.02 µM; in [5], 0.428 µM; in assay [6] it was 1.44 µM. The GI50 is 0.404 µM in [7], 0.495 µM in assay [8], 0.427 µM in assay [9] and 0.312 µM in [10]. Further, the TGI in [1] was 2.19 µM; in [2] it was 3.47 µM; in [3], 2.97 µM; in assay [4], 2.41 µM; in assay [5], 1.58 µM; in assay [6], 2.75 µM. In addition, the TGI is 1.39 µM in [7], 1.08 µM in [8], 1.59 µM in assay [9] and 1.72 µM in [10].
As for `COc1cc(/C=C/C(=O)c2ccc(NC(=O)CN3CCN(c4cc5c(cc4F)c(=O)c(C(=O)O)cn5C4CC4)CC3)cc2)cc(OC)c1OC`, the GI50 in assay [1] is 1.07 µM; in assay [2] it was 0.451 µM; in assay [3] it was 2.96 µM; in assay [4], 1.52 µM; in assay [5] it was 0.671 µM; in assay [6], 0.871 µM. In addition, the GI50 in assay [7] was 1.8 µM; in assay [8] it was 0.947 µM; in assay [9] it was 0.433 µM; in [10] it was 0.31 µM. Further, the TGI in [1] was above 27.1 µM; in assay [2] it was 2.31 µM; in [3], above 27.1 µM; in assay [4], above 51 µM; in assay [5] it was 3.37 µM; in assay [6] it was 4.39 µM. For the same compound, the TGI in assay [7] is 12.9 µM; in assay [8], 3.19 µM.
As for `O=[N+]([O-])c1c(Br)sc(Br)c1[N+](=O)[O-]`, the GI50 in [1] is 6.8 µM; in assay [2], 10.1 µM; in [3], 2.46 µM; in assay [4], 3.18 µM; in assay [5] it was 1.98 µM; in [6] it was 4.88 µM. Besides, the GI50 was 2.31 µM in assay [7], 1.73 µM in assay [8], 2 µM in assay [9] and 1.91 µM in assay [10]. Moreover, the TGI is 19.6 µM in assay [1]; 22 µM in assay [2]; 6.95 µM in [3]; 13.3 µM in [4]; 5.38 µM in assay [5]; 17.2 µM in [6]. The TGI in [7] turned out to be 6.18 µM; in [8], 3.25 µM; in [9] it was 5.28 µM; in assay [10], 5.54 µM.
On to `CC(=Nc1ccccc1)C1=C(O)C(Cc2ccccc2)NC1=O` (stereo unspecified), for which the GI50 in [1] is 0.133 µM; in assay [2] it was 0.0278 µM; in assay [3], 0.0938 µM; in assay [4], 0.244 µM; in assay [5], 0.0651 µM; in assay [6], 0.0446 µM. For the same compound, the GI50 was 0.042 µM in assay [7], 0.0586 µM in assay [8], 0.0196 µM in assay [9] and 0.0515 µM in [10]. In addition, the TGI in assay [1] is 1.29 µM; in assay [2] it was 0.266 µM; in assay [3], above 100 µM; in assay [4] it was above 100 µM; in assay [5] it was above 100 µM; in assay [6] it was 2.63 µM. Further, the TGI was above 100 µM in assay [7], 0.0528 µM in assay [9] and above 100 µM in assay [10].
As for `Cc1occc1C(=S)Nc1ccc(Cl)c(C(=O)OC(C)C2CC2)c1` (stereo unspecified), the TGI in assay [1] is above 100 µM; in assay [2] it was 39.9 µM; in assay [3], 61.2 µM; in [4], 33.6 µM; in assay [5] it was 35.2 µM; in [6], 31.8 µM. The TGI was above 100 µM in [7], 52.5 µM in [8], 66.2 µM in [9] and 60.1 µM in assay [10].
Take `COc1cc2c(cc1C)NC(=O)/C2=C\c1cccc(Oc2ccccc2)c1`: the GI50 in assay [1] was 13.5 µM; in assay [2], 14.3 µM; in assay [3] it was 17 µM; in [4] it was 21 µM; in assay [5], 14.5 µM; in assay [6] it was 11.6 µM. The GI50 in [7] was 23.3 µM; in assay [8], 13.2 µM; in assay [9], 11.8 µM; in assay [10], 5.02 µM. The TGI is 27 µM in assay [1]; 34.6 µM in assay [2]; 32.4 µM in [3]; 38.1 µM in assay [4]; 29.4 µM in assay [5]; 23.8 µM in assay [6]. Besides, the TGI in assay [7] amounted to 50.6 µM; in assay [8], 25.9 µM; in [9], 25.9 µM; in [10], 24 µM.
Consider `COc1ccc(Cn2cc3c(c2-c2ccc(OC)cc2)CCc2cnoc2-3)cc1`, for which the GI50 was 0.35 µM in [1]; 0.376 µM in [2]; 2.68 µM in assay [3]; 1.36 µM in assay [4]; 0.775 µM in assay [5]; 0.343 µM in assay [6]. Besides, the GI50 in assay [7] is 0.616 µM; in [8] it was 0.658 µM; in assay [9], 0.181 µM; in [10], 0.336 µM. Further, the TGI in assay [1] is 2.71 µM; in assay [2], 2.35 µM; in [3], above 100 µM; in assay [4] it was above 100 µM; in assay [5], above 100 µM; in [6], 4.71 µM. Further, the results for the TGI in assay [7], in assay [8] and in [9] were above 100 µM, above 100 µM and 0.48 µM, respectively.
For `O=C(O)c1cccc(N=Nc2c(S(=O)(=O)O)ccc3c2C(=O)c2ccccc2C3=O)c1O`, the TGI in assay [1], in [2], in assay [3], in assay [4], in [5] and in assay [6] was above 100 µM throughout. Moreover, the TGI in assay [7], in [8], in [9] and in [10] was above 100 µM each time.
For `O=C1c2ccccc2C(=O)c2c1ccc(C1C(=O)c3ccccc3C1=O)c2-c1c(C2C(=O)c3ccccc3C2=O)ccc2c1C(=O)c1ccccc1C2=O`, the TGI in [1], in [2], in assay [3], in [4], in assay [5] and in [6] was above 100 µM each time. Further, the TGI in assay [7], in assay [8], in [9] and in assay [10] was above 100 µM each time.
As for `CN(CC(=O)N(Cc1ccc(C2CCCCC2)cc1)c1ccc(C(=O)O)c(O)c1)S(=O)(=O)c1c(F)c(F)c(F)c(F)c1F`, the GI50 in [1] was 15.6 µM; in assay [2] it was 19 µM; in [3] it was 17.5 µM; in [4], 18.6 µM; in assay [5], 1.85 µM; in assay [6], 14 µM. Also, the GI50 in assay [7] is 16.5 µM; in assay [8] it was 8.88 µM; in assay [9], 3.39 µM; in [10] it was 2.28 µM. In addition, the TGI in [1] turned out to be 29 µM; in assay [2], 33.7 µM; in assay [3] it was 32.4 µM; in assay [4], 41.5 µM; in [5], 4.08 µM; in assay [6], 27.3 µM. Further, the TGI stood at 30.4 µM in [7], 23.8 µM in assay [8], 15.8 µM in assay [9] and 6.37 µM in assay [10].
Consider `COc1cc2c(cc1Nc1nc(Nc3ccsc3C(N)=O)c3cc[nH]c3n1)N(C(=O)CN(C)C)CCC2(C)C`, for which the GI50 in assay [1] is 2.88 µM; in assay [2], 0.647 µM; in assay [3], 0.0412 µM; in assay [4] it was 0.763 µM; in [5] it was 3.23 µM; in assay [6] it was 0.797 µM. Also, the GI50 in [7] is 1.36 µM; in assay [8], 3.06 µM; in assay [9], 0.299 µM; in assay [10] it was 1.09 µM. The TGI stood at 5.96 µM in assay [1]; 2.61 µM in [2]; 3.67 µM in [3]; 4.92 µM in assay [4]; 7.31 µM in assay [5]; 3.89 µM in assay [6]. For the same compound, the TGI in assay [7] was 4.97 µM; in [8], 6.82 µM; in assay [9] it was 2.49 µM; in assay [10] it was 5.21 µM.
For `O=C(/C=C/c1cc([N+](=O)[O-])ccc1Cl)c1ccccc1`, the GI50 in assay [1] was 14.7 µM; in [2], 1.8 µM; in assay [3], 23.5 µM; in assay [4], 15.4 µM; in assay [5], 4.6 µM; in assay [6], 15.4 µM. Also, the GI50 in assay [7] is 38.2 µM; in [8], 15.2 µM; in assay [9], 14.2 µM; in assay [10], 3.68 µM. The TGI was 31.2 µM in assay [1]; 3.59 µM in assay [2]; 74.2 µM in assay [3]; 59.3 µM in assay [4]; 31.7 µM in assay [5]; 29.3 µM in assay [6]. Also, the TGI in assay [7] is above 100 µM; in assay [8], 32 µM; in [9], 35.5 µM; in assay [10] it was 14.6 µM.
In the case of `CN1c2ccccc2C(C)(C)C12C=Cc1cc(O)ccc1O2` (stereo unspecified), the GI50 in assay [1] is 2.56 µM; in assay [2], 2.31 µM; in [3], 10.2 µM; in assay [4] it was 13.3 µM; in [5], 4.69 µM; in assay [6], 2.38 µM. Further, the GI50 in assay [7] is 2.94 µM; in assay [8], 2.77 µM; in [9], 2.1 µM; in assay [10], 1.71 µM. The TGI was 8.17 µM in assay [1]; 6.2 µM in [2]; 25.2 µM in assay [3]; 28.8 µM in [4]; 14.9 µM in assay [5]; 9.94 µM in [6]. Further, the TGI in [7] is 9.63 µM; in assay [8] it was 8.96 µM; in [9], 4.49 µM; in [10], 4.91 µM.
Take `COc1cc(O)c(C(=O)/C=C/c2ccc(O)cc2)c(O)c1[C@@H]1C[C@H](CCc2ccc(O)cc2)O[C@H](c2ccc(O)cc2)C1`: the GI50 in [1] is 3.22 µM; in [2], 2.51 µM; in assay [3], 7.53 µM; in [4] it was 14.8 µM; in assay [5], 2.88 µM; in [6] it was 3.7 µM. In addition, the GI50 in [7] was 4.55 µM; in assay [8], 2.47 µM; in assay [9], 3.89 µM; in assay [10], 2.18 µM. For the same compound, the TGI was determined as 10.9 µM in assay [1]; 6.64 µM in [2]; 19.9 µM in [3]; 61.2 µM in assay [4]; 16.5 µM in assay [5]; 12.8 µM in assay [6]. Further, the TGI was 17.1 µM in [7], 7.1 µM in assay [8], 14 µM in assay [9] and 5 µM in [10].
